Test results reported in patent publication US20080318949A1, “Pyrazolopyrimidinone Derivatives, Their Preparation And Their Use” (Topharman Shanghai Co., Ltd, priority 2005, published 2008).

Experiments:
[1] = biological target: T1, PDE6 from bovine retina (Bos taurus, UniProt P11541+P23439); experiment: PDE6 inhibitory activity test (scintillation proximity assay); type: biochemical; settings: for IC50: PDE6 from bovine retina; for PDE6 IC50/PDE5 IC50: selectivity of PDE5 versus PDE6
T1 construct: the PDE6 was isolated form bovine retinas; from tissue; host or cells: bovine retina
T1 sequence (P11541 2-856 limits assumed): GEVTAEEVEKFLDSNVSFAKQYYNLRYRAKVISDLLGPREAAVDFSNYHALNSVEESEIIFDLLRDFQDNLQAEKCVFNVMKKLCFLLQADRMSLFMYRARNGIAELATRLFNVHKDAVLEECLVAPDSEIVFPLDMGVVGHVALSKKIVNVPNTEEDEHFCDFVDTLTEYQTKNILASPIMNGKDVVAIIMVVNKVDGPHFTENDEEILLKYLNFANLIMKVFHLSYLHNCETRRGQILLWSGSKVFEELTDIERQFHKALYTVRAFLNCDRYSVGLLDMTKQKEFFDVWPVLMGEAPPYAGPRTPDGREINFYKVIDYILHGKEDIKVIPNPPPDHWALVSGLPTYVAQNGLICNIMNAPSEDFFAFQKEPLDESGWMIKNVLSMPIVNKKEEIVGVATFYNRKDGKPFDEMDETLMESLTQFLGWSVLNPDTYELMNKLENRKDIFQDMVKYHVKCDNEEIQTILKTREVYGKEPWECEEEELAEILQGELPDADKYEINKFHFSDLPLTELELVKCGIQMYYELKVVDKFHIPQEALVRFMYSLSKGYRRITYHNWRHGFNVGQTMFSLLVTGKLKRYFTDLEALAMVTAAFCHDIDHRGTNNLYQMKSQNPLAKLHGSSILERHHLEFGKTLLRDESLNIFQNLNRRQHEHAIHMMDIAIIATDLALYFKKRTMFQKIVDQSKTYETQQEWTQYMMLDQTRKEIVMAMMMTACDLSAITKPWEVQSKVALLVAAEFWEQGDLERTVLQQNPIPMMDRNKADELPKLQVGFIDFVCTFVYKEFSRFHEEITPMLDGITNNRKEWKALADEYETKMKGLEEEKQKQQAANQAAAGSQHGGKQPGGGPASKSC
T1 sequence (P23439 2-850 limits assumed): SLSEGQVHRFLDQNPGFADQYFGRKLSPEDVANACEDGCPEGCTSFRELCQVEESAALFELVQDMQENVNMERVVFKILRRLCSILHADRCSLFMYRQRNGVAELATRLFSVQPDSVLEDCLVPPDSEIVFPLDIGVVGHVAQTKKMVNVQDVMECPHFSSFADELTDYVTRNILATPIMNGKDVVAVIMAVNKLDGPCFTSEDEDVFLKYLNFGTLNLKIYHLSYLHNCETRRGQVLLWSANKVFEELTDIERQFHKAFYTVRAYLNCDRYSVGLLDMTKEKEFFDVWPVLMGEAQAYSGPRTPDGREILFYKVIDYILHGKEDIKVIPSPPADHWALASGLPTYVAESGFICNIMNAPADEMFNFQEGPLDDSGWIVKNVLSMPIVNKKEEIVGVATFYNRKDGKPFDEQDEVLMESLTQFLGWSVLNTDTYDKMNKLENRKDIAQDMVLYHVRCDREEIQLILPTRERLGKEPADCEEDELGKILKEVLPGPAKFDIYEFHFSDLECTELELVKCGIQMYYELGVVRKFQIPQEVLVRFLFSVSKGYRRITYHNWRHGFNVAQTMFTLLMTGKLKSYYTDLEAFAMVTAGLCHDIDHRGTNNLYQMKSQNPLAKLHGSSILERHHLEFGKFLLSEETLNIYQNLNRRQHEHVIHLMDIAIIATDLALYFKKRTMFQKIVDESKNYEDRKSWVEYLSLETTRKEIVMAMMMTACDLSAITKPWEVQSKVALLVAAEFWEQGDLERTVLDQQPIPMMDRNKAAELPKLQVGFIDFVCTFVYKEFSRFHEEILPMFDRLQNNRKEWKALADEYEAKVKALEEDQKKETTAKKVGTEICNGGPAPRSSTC
Description: (§1) The PDE5 and PDE3 were isolated form human platelets, while the PDE6 was isolated form bovine retinas. The enzyme inhibitory activity test conducted immediately after the enzymes had been isolated, using a scintillation proximity assay for the direct detection of AMP/GMP by the TRKQ7100 and TRKQ7090 kit. In summary, the effect of PDE inhibitors was investigated by assaying a fixed amount of enzyme in the presence of varying inhibitor concentrations and low substrate. The final assay volume was made up to 100 μl with 10 μl assay buffer (50 mM Tris/HCl PH 7.5, 8.3 mM MgCl2, 1.7 mM EGTA), and water. Reactions were initiated with enzyme, incubate for 30 minutes at 30° C. and terminated with 50 μl yttrium silicate SPA beads suspension containing zinc sulphate. Shook for 20 minutes and settled for 30 minutes in the dark, then counted on a BECKMAN LS6500 MULTI-PURPOSE SCINTILLATION COUNTER. The IC50 value for the compounds according the present invention was calculated according the counts.

[2] = biological target: T2, PDE5 from human platelets (Homo sapiens, UniProt O76074); experiment: PDE5 inhibitory activity test (scintillation proximity assay); type: biochemical
T2 construct: from tissue; host or cells: human platelets
Description: as §1
According to the above-mentioned method, the inhibitory activities of some compounds of formula IA and IB according to the invention against PDE5 from human platelets were determined.

[3] = test system: male KM mouse; experiment: Acute oral toxicity test; type: in vivo; settings: single oral dose of 3 g/kg, 10 or 11 mice per group
Procedure: In this test male KM mouse weighting 18-22 g were used, and 10 or 11 mouse were assigned randomly to each group. […] The animals were fasted for 12 hours before the administration.

| Molecule | IC50 [1] [nM] | PDE6 IC50/PDE5 IC50 [1] | IC50 ([2]; PDE5 from human platelets) [nM] | IC50 ([2]; PDE5 in the PDE6 selectivity table) [nM] | Number of death [3] | mortality rate [3] [%] |
| --- | --- | --- | --- | --- | --- | --- |
| CCCc1nn(C)c2c(=O)[nH]c(-c3cc(S(=O)(=O)N(CCOC(C)=O)CCOC(C)=O)ccc3OCC)nc12 [Example 4, 1-methyl-5-{2-ethoxy-5-[bis(2-acetoxyethyl)amidosulfonyl]phenyl}-3-n-propyl-1,6-dihydro-7H-pyrazolo[4,3-d]pyrimidin-7-one] | 276 | 82.1 | 3.37 |  |  |  |
| CCCOc1ccc(S(=O)(=O)N(CCOC(C)=O)CCOC(C)=O)cc1-c1nc2c(CCC)nn(C)c2c(=O)[nH]1 [Example 1, 1-methyl-5-{2-propyloxy-5-[bis(2-acetoxyethyl)amidosulfonyl]phenyl}-3-n-propyl-1,6-dihydro-7H-pyrazolo[4,3-d]pyrimidin-7-one] | 16.8 | 210 | 0.08 |  |  |  |
| 1-methyl-5-{2-propoxy-5-[bis(3-methoxypropyl)amidosulfonyl]phenyl}-3-n-propyl-1,6-dihydro-7H-pyrazolo[4,3-d]pyrimidin-7-one [Example 103] |  |  | 5.61 |  | 0 | 0 |
| 1-methyl-5-{2-propoxy-5-[[1-ethyl-1-(3-morpholin-1-yl)propyl]amidosulfonyl]phenyl}-3-n-propyl-1,6-dihydro-7H-pyrazolo[4,3-d]pyrimidin-7-one [Example 112] |  |  | 12.1 |  | 2 | 20 |
| CCCc1nn(C)c2c(=O)[nH]c(-c3cc(S(=O)(=O)N(CCOC(=O)c4cccnc4)CCOC(=O)c4cccnc4)ccc3OCC)nc12 [Example 5, 1-methyl-5-{2-ethoxy-5-[bis(2-nicotinoyloxyethyl)amidosulfonyl]phenyl}-3-n-propyl-1,6-dihydro-7H-pyrazolo[4,3-d]pyrimidin-7-one] | 131 | 131 | 1.08 |  |  |  |
| CCCOc1ccc(S(=O)(=O)N(CC)CCN2CCOCC2)cc1-c1nc2c(CCC)nn(C)c2c(=O)[nH]1 [Example 41, 1-methyl-5-{2-propoxy-5-[[1-ethyl-1-(2-morpholin-1-yl)ethyl]amidosulfonyl]phenyl}-3-propyl-1,6-dihydro-7H-pyrazolo[4,3-d]pyrimidin-7-one] |  |  | 10.5 |  |  |  |
| CCCc1nn(C)c2c(=O)[nH]c(-c3cc(S(=O)(=O)N(CCOCCOC(C)=O)CCN(CC)CC)ccc3OCC)nc12 [Example 15, 1-methyl-5-{2-ethoxy-5-[1-(2-diethylaminoethyl)-1-(2-acetoxyethoxyethyl)amidosulfonyl]phenyl}-3-n-propyl-1,6-dihydro-7H-pyrazolo[4,3-d]pyrimidin-7-one] |  |  | 10.6 |  |  |  |
| 1-methyl-5-{2-ethoxy-5-{[1-ethyl-1-[2-[1-ethyl-1-(2-hydroxyethoxyethyl)]amino]ethyl]amidosulfonyl}phenyl}-3-n-propyl-1,6-dihydro-7H-pyrazolo[4,3-d]pyrimidin-7-one [Example 20] |  |  | 0.505 |  |  |  |
| CCOc1ccc(S(=O)(=O)N(CCOC(C)=O)CCOC(C)=O)cc1-c1nc2c(CC)nn(C)c2c(=O)[nH]1 [Example 6, 1-methyl-5-{2-ethoxy-5-[bis(2-acetoxyethyl)amidosulfonyl]phenyl}-3-ethyl-1,6-dihydro-7H-pyrazolo[4,3-d]pyrimidin-7-one] |  |  | 0.74 |  |  |  |

Now from value to molecule, other results behind:

| IC50 [1] [nM] | PDE6 IC50/PDE5 IC50 [1] | IC50 ([2]; PDE5 from human platelets) [nM] | IC50 ([2]; PDE5 in the PDE6 selectivity table) [nM] | Molecule | Number of death [3] | mortality rate [3] [%] |
| --- | --- | --- | --- | --- | --- | --- |
| 5.71 | 65.6 | 0.087 |  | CCCOc1ccc(S(=O)(=O)N(CCN2CCOCC2)Cc2ccccc2)cc1-c1nc2c(CCC)nn(C)c2c(=O)[nH]1 [Example 24, 1-methyl-5-{2-propoxy-5-[[1-benzyl-1-(2-morpholin-1-yl)ethyl]amidosulfonyl]phenyl}-3-n-propyl-1,6-dihydro-7H-pyrazolo[4,3-d]pyrimidin-7-one] |  |  |
| 56.5 | 425 | 0.133 |  | CCCOc1ccc(S(=O)(=O)N(CCO)CCO)cc1-c1nc2c(CCC)nn(C)c2c(=O)[nH]1 [Example 2, 1-methyl-5-{2-propyloxy-5-[bis(2-hydroxyethyl)amidosulfonyl]phenyl}-3-n-propyl-1,6-dihydro-7H-pyrazolo[4,3-d]pyrimidin-7-one] |  |  |
| 93.6 | 279 | 0.335 |  | CCCc1nn(C)c2c(=O)[nH]c(-c3cc(S(=O)(=O)N(CCN4CCOCC4)Cc4ccccc4)ccc3OCC)nc12 [Example 25, 1-methyl-5-{2-ethoxy-5-[[1-benzyl-1-(2-morpholin-1-yl)ethyl]amidosulfonyl]phenyl}-3-n-propyl-1,6-dihydro-7H-pyrazolol[4,3-d]pyrimidin-7-one] |  |  |
|  |  | 0.456 |  | CCOc1ccc(S(=O)(=O)N(CCN2CCOCC2)Cc2ccccc2)cc1-c1nc2c(CC)nn(C)c2c(=O)[nH]1 [Example 27, 1-methyl-5-{2-ethoxy-5-[[1-benzyl-1-(2-morpholin-1-yl)ethyl]amidosulfonyl]phenyl}-3-ethyl-1,6-diydro-7H-pyrazolo[4,3-d]pyrimidin-7-one] |  |  |
|  |  | 0.862 |  | CCCOc1ccc(S(=O)(=O)N(CCO)CCN(CC)CC)cc1-c1nc2c(CCC)nn(C)c2c(=O)[nH]1 [Example 14, 1-methyl-5-{2-propoxy-5-[1-(2-diethylaminoethyl)-1-(2-hydroxyethyl)amidosulfonyl]phenyl}-3-n-propyl-l,6-dihydro-7H-pyrazolo[4,3-d]pyrimidin-7-one] |  |  |
| 32.9 | 588 | 0.056 | 0.056 | 1-methyl-5-{2-propoxy-5-[bis(2-nicotinoyloxyethyl)amidosulfonyl]phenyl}-3-n-propyl-1,6-dihydro-7H-pyrazolo[4,3-d]pyrimidin-7-one [Example 3] |  |  |
